Results: patent US20090197957A1, “Methods and compositions for the treatment of pain” (Nuon Therapeutics, Inc., priority 2005, published 2009)

Key:
[1] = test system: astrocytes in the spinal cord (GFAP); experiment: GFAP immunohistochemistry of lumbar spinal cord (astrocytic activation); type: in vivo, mice; conditions: 10 days following onset of arthritis; 3,4-DAA 200 mg/kg/day, dexamethasone 0.5 mg/kg/2 days
Description: FIG. 6 is an image depicting that 3,4-DAA inhibits mechanical and thermal allodynia, and inhibits astrocytic activation in arthritic mice. Mechanical (a) and thermal (b) allodynia, and paw swelling (c) and clinical score (d) were assessed in naïve mice on the day of arthritis onset, and up to 10 days following therapy with 200 mg/kg 3,4-DAA, […] dexamethasone, or vehicle. […] Whilst 3,4-DAA therapy reduced astrocytic activation (bottom right panel) dexamethasone had no action on GFAP levels (bottom left panel). Quantification of the number of hyper-plastic astrocytes in the spinal cord 10 days following onset of arthritis was performed (f).
Upon completion of treatment, animals were sacrificed by CO2 exposure, and the lumbar spinal cord was excised, fixed (10% formalin), and embedded in paraffin. Immunohistochemistry was then performed to detect astrocytes with a rabbit-anti GFAP (glial fibrillary acidic protein) antibody (Dako Cytomation, Glostrup, Denmark). Antibody detection was performed using an ABC peroxidase method (Vector Laboratories, High Wycombe, Bucks., U.K.) (32).
Astrocytic activation has been proposed to be important for the generation of both inflammatory and neuropathic hypersensitivity [Bao et al., 2001, Neuroreport 12:3905-3908; Watkins et al., 2001, Trends Neurosci. 24:450-455]. Astrocytic activation in the spinal cord in CIA was therefore assessed. […]

[2] = test system: collagen-induced arthritis (CIA); experiment: Development of collagen-induced arthritis (treatment from day of immunisation); type: in vivo, DBA/1 mice; conditions: 200 mg/kg/day from the day of immunisation
Description: Type II collagen was purified from bovine cartilage, as described [Williams 2004, Methods Mol. Med. 98:207-216] and solubilized by stirring overnight at 4° C. in acetic acid (0.1M) or Tris buffer (0.05 M Tris, containing 0.2 M NaCl, pH 7.4). 3,4-DAA was synthesised by Angiogen Pharmaceuticals Pty. Ltd. For in vivo studies 3,4-DAA was dissolved at a maximum concentration of 10 mg/ml in 1% sodium bicarbonate by heating for 1 h at 70° C. Upon cooling, an emulsion was formed. For in vitro studies 3,4-DAA was dissolved in dimethyl sulphoxide (DMSO). 3-Hydroxy-anthranilic acid (3-HAA) was purchased from Sigma (Poole, UK) and dissolved in PBS.
Male DBA/1 mice (8-12 weeks old) were immunized intradermally at the base of the tail with bovine type II collagen (200 μg) emulsified in complete Freund's adjuvant (CFA; Difco, West Molesley, UK). Arthritis was monitored clinically using the following scoring system: 0=normal, 1=slight swelling and/or erythema, and 2=pronounced oedematous swelling. Each limb was graded, giving a maximum score of 8 per mouse. In addition, paw-swelling was measured using callipers.
In order to assess its anti-arthritic potential, 3,4-DAA was injected into DBA/1 mice (200 mg/kg/day) from the day of immunisation with type II collagen in CFA. […]

[3] = test system: draining (inguinal) lymph node cells; experiment: Lymph node cell cytokine responses from treated CIA mice (72 h culture, ELISA); type: in vivo
Description: FIG. 4 is a graphical representation of the results of mice with established CIA being treated for 10 days with 3,4-DAA or vehicle control. Mice were then killed and draining (inguinal) lymph node cells were cultured for 72 h in the absence or presence of type II collagen.
Inguinal lymph nodes were excised from 3,4-DAA-treated and control mice. Alternatively, inguinal lymph nodes were removed from untreated arthritic mice (day 1-5 of arthritis) and 3,4-DAA was added in vitro. In both cases, a single cell suspension was prepared and LNC were cultured in RPMI 1640 containing FCS (10% v/v), 2-mercaptoethanol (20 μM), L-glutamine (1% w/v), penicillin (100 U/ml) and streptomycin (100 μg/ml) in the presence or absence of type II collagen (50 μg/ml). Secreted cytokines (IFN-γ, IL-5, and IL-10) were measured after 72 h. by ELISA. In brief, 96 well ELISA plates were coated with the respective capture antibody, blocked with bovine serum albumin (2% w/v), and then incubated with LNC culture supernatants overnight at 4° C. After washing, bound cytokines were detected using biotinylated detect antibodies. A standard curve was generated using known concentrations of the appropriate recombinant cytokine and the concentrations of cytokines present in culture supernatants were estimated by reference to the standard curve.
At the end of the experiment draining (inguinal) LNC from control and treated mice were cultured for 72 h in the presence or absence of type II collagen. IFN-γ, IL-5 and IL-10 production was measured by ELISA.

COc1ccc(/C=C/C(=O)Nc2ccccc2C(=O)O)cc1OC [Tranilast, 2-[[3-(3,4-dimethoxyphenyl)-1-oxo-2-propenyl]amino]benzoic acid]
number of activated astrocytes in the spinal cord (GFAP staining) [1]: significantly reduced
clinical score of arthritis by day 28 [2]: 1
mice that had developed arthritis by day 28 ([2]; 7 mice): 14%
differences between the groups in cytokine production on re-stimulation with collagen ([3]; 72 h culture in presence of type II collagen): not significant
IFN-γ production by lymph node cells ([3]; mice given 400 mg/kg (b205 prints 400 mg/mouse) for 10 days, 72 h culture without collagen): significantly reduced
IL-10 production by lymph node cells ([3]; mice treated for 10 days, 72 h culture): no IL-10 was detected
